# Results reported in ChEMBL document CHEMBL1157312, “DNA methyl transferase inhibiting halogenated monoterpenes from the Madagascar red marine alga Portieria hornemannii” (J Nat Prod, 2006).
# Target: DNA (cytosine-5)-methyltransferase 1 (Homo sapiens) (UniProt P26358)
# Assay: Inhibition of DNMT1 assessed as drug level causing inhibition by SPA
# DNA (cytosine-5)-methyltransferase 1 (Homo sapiens), sequence (P26358 whole entry): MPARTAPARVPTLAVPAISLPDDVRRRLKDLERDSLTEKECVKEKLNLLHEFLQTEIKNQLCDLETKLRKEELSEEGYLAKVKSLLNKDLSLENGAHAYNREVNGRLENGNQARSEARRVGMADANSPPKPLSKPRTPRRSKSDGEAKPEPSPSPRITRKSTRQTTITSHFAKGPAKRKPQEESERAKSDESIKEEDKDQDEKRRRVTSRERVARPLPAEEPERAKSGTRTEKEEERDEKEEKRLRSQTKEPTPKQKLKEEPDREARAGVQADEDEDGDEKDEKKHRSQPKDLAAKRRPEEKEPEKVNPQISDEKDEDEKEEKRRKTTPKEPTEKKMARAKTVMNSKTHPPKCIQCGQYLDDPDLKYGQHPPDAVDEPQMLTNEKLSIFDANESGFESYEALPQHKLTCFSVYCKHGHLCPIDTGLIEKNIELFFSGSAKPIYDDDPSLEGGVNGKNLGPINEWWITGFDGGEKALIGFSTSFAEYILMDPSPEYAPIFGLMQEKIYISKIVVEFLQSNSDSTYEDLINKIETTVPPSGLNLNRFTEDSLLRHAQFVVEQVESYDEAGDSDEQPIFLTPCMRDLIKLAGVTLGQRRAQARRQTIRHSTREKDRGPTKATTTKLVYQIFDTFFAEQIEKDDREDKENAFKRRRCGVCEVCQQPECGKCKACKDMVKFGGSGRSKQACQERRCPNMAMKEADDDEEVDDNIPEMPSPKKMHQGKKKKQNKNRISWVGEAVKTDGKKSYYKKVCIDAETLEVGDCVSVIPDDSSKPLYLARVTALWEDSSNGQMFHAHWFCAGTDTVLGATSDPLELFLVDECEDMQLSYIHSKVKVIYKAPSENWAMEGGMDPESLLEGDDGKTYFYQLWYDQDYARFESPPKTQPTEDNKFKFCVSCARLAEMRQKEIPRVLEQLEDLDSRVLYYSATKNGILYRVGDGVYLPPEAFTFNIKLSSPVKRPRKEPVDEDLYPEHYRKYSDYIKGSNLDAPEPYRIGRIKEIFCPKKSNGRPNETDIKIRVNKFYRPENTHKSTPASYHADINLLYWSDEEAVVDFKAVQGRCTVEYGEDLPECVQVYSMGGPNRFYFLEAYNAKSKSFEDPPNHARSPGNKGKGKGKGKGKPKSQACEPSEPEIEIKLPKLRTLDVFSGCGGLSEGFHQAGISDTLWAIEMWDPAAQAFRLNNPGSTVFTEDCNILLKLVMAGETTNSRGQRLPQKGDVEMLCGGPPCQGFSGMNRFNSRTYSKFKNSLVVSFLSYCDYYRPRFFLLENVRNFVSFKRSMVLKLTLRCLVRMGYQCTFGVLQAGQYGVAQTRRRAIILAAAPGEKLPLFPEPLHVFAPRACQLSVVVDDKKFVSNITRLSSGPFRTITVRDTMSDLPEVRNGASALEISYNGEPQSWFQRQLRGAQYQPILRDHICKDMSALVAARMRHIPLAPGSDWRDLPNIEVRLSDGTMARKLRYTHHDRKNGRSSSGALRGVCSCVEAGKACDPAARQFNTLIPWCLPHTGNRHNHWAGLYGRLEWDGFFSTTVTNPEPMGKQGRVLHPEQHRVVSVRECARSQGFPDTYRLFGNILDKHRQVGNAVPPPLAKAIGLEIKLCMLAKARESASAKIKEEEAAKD
row,SMILES,Activity [µM]
1,C=C(Cl)/C(=C\Br)CCC(Br)C(C)(C)Cl (centres undefined),55
2,C=C(Cl)[C@](Cl)(CBr)CC[C@@H](Br)C(C)(C)Cl,1.25
3,C=C[C@](Cl)(CBr)CC[C@@H](Br)C(C)(C)Cl,21.9
4,C=C(Cl)/C(=C\Br)CCC(Br)=C(C)C,1.65
